Results on one molecule are retold here after US11446276B2, “Extreme low dose THC as a therapeutic and prophylactic agent for Alzheimer's disease” (University of South Florida, priority 2015, dated 2022).

“Also recorded” adds a separate entry of the source.

The subject of data set [1] is Aβ40 in N2a/AβPPswe cells. Nature of the data set: Aβ40 ELISA of N2a/AβPPswe cells treated with THC or caffeine. In kind it is cell-based, human. The note with it: for Aβ40 levels versus control: THC 0.25-2500 nM or caffeine 0.625-10 μM; for Percentage of decreased Aβ40: THC 2.5 μg/mL compared with the control; for Aβ40 (pg/mL) in THC-treated cells: THC 2.5 μg/mL, N2a/AβPPswe cells. Background: ELISA stands for enzyme-linked immunosorbent assay.

In data set [2] the test system is mitochondrial function. To be noted: THC 10 to 50 micromolar; cited from earlier work.
Data set [3] has as its system Aβ40 in N2a/AβPPswe cells. Nature of the data set: Aβ40 ELISA after one or two THC administrations 24 hours apart. In kind it is cell-based, human. The note with it: FIG. 9B. As for the experimental part: (§1) Studies were conducted on multiple dosings of THC. N2a/AβPPswe cells, as discussed in Example 1, were suspended to 2×10^5/mL, 3 mL plated into each well, and grown in DMEM with 10% fetal bovine serum, 100 U/mL penicillin, 100 μg/mL streptomycin, and 400 μg/mL G418 (Invitrogen), at 37° C. in the presence of 5% CO2. N2a/AβPPswe cells were subcultured using trypsin, and pipetted numerous times to ensure cells were separated into individual cells. Cells were counted, as provided in Example 1, and proper amount of cell medium and fresh medium was added into new flasks according to the ratio of dilution. Pipetting was performed 10 times to homogenize cells, and 3 mL of cells were seeded into medium into each 6 well plate. When one pipette was used up, the cells were mixed in the flask before using them for the next pipette. Compounds were suspended in DMSO, as provided in Example 1.
12 hours after plating, cells were treated with various concentrations of Δ9-THC (T4764-1ML Sigma Aldrich, Merck KGaA; Darmstadt, Germany), with untreated N2a/AβPPswe cells used as a control. Multiple dosing regimens were carried out 24 hours after initial treatment. Treatment was then washed out, i.e. the medium was then removed from the cultures and 3 mL of media containing the treatment compounds were added. […]

Data set [4] deals with Aβ in N2a/AβPPswe cells. In words: Sandwich ELISA of Aβ in N2a/AβPPswe cells treated with THC and CB1 inhibitor rimonabant. In kind it is cell-based, human. To be noted: 25 nM THC with no rimonabant; 36 hour and later time points; FIG. 2. As for the experimental part:
as §1, with “The mechanism of action was elucidated for THC's effect” for “Studies were conducted”, “Aβ levels using a sandwich ELISA assay.” for “multiple dosings of THC.”, “DMSO.” for “DMSO, as provided in Example 1.”
12 hours after cells were plated, cells were treated with 25 nM of Δ9-THC (T4764-1ML Sigma Aldrich, Merck KGaA; Darmstadt, Germany), with the known inhibitor of the CB1 receptor, rimonabant, at 0 μM, 100 μM, 10 μM, 1 μM, or 0.1 μM rimonabant. Untreated N2a/AβPPswe cells were used as a control. Treatment was then washed out, i.e. the medium was then removed from the cultures and 3 mL of media containing the treatment compounds were added. Cells were collected at 12 hours afterwards, 48 hours afterwards, 60 hours afterwards, and 72 hours afterwards, and ELISA was conducted on the cells.
ELISA assay was performed on the cells using 50 μL of goat anti-PWT1-42 antibody solution, which was incubated overnight, followed by a 1-hour incubation with 0.1% I-block buffer. The tissue culture supernatant was diluted 1:10 with diluent buffer containing a protease inhibitor. Standards were prepared by serial dilution, as provided in Example 1. The plate was washed and 50 μL of sample or standard was added with triplication. 50 μL of both Biosource 40/42 (HS) (primary antibody) Aβ and a standard solution was added to each well and incubated for 3 hours followed by 5× wash with PBST. […]

The test system of data set [5] is CB1 receptor. Nature of the data set: RT-PCR for CB1 receptor expression level. To be noted: cells treated with low doses of THC.

As to `CCCCCc1cc(O)c2c(c1)OC(C)(C)[C@@H]1CCC(C)=C[C@@H]21` [THC, Δ9-tetrahydrocannabinol], the “Aβ levels at the lowest dose” value in data set [1] (6 hours, THC 0.25 nM) is reported as “minor increase”. In addition, the “Aβ40 levels versus control” value in data set [1] (6 hours, FIG. 1A) is on record as “dose-dependent decrease; also recorded: significant reduction”; in data set [1] (24 hours, FIG. 1B) it was “dose-dependent decrease; also recorded: exponential drop”; in data set [1] (48 hours, FIG. 1C), “dose-dependent decrease; also recorded: significantly differed more”. Moreover, the “Percentage of decreased Aβ40” value in data set [1] (6 hr) was determined as 9.23%; in data set [1] (24 hr) it was 31.19%; in data set [1] (48 hr) it was 51.24%. Further, the “Aβ40 (pg/mL) in THC-treated cells” value in data set [1] (6 hr) was determined as 965.827 pg/mL; in data set [1] (24 hr), 3648.975 pg/mL; in data set [1] (48 hr) it was 2894.175 pg/mL. In addition, in data set [2], the Cell death entry is given as “induces cell death”. Also, the Mitochondrial function result in data set [2] was “inhibitor of mitochondrial function”. Also, in data set [3] (designated concentrations of THC), the “Aβ40 (pg/ml) concentrations after one or two administrations” value was “decreases Aβ40”. For the same molecule, the “Aβ40 in cells treated twice with THC 24 hours apart versus once” value in data set [3] (from 12 μM and higher concentrations) was “significant decrease in Aβ40 concentration compared to cells treated once; also recorded: even greater reduction in Aβ levels”. Moreover, the Aβ levels entry in data set [4] is “significantly lower Aβ; also recorded: marked decreases”. Further, the “CB1 receptor expression level (RT-PCR)” value in data set [5] is reported as “no significant upregulation”.
